Assays:
[1] = biological target: T1, native human B1 receptors (Homo sapiens, UniProt P46663); assay: Calcium flux assay (FLIPR) with IMR-90 human foetal lung fibroblasts after IL-1 induction; type: cell-based; conditions: IMR-90 fibroblasts induced with human IL-1; 0.1% BSA in assay buffer; agonist Lys-(Des-Arg)-Bradykinin at EC90; read-out: hB1 IC50 IMR90
T1 construct: which express native human B1 receptors after induction with human IL-1; Coriell Institute; host or cells: IMR-90 human foetal lung fibroblasts, induced with human IL-1
T1 sequence (P46663 1-353): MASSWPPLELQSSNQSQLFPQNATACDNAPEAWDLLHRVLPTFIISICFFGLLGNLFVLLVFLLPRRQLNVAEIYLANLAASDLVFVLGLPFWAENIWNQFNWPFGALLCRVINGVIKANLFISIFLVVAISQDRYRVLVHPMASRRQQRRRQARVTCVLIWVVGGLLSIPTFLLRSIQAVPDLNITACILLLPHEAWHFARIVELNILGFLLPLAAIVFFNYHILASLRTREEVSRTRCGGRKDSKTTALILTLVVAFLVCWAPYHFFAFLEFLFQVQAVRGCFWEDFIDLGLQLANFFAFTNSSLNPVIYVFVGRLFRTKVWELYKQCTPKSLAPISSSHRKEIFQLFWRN
Experimental: Calcium Flux Assay (FLIPR) with Human Fibroblasts for Bradykinin B1 Receptor Antagonist (hB1 IMR-90 IC50)
The Calcium flux Assay was carried out utilising IMR-90 human foetal lung fibroblasts (American Type Culture Collection, Rockville, Md.; and Coriell Institute, Camden, N.J.), which express native human B1 receptors after induction with human IL-1[…].
The fibroblasts were cultured in complete growth media comprised of Dulbecco's modified Eagle's medium (DMEM; Sigma) containing 10% foetal bovine serum, 4 mM L-glutamine, and 1% nonessential amino acids. The cells were maintained in a humidified atmosphere with 5% CO2 at 37° C. and were sub-cultured at a ratio of 1:3, every other day.
For the assay, IMR-90 fibroblasts were harvested using TrypLE Express (GIBCO/Invitrogen) and seeded into 384-well plates (Corning Cellbinding Surface, Cat. 3683) at a density of 15000 cells/well. The following day, cells were treated with 0.35 ng/mL human IL-1[…] in 10% FBS/MEM for 3 h to up-regulate B1 receptors. Induced cells were loaded with fluorescent calcium indicator by incubation with 2.5 μM Fluo-4/AM (Invitrogen) at 37° C., 5% CO2 for 2 h in the presence of 2.5 mM probenecid in 1% FBS/MEM. Extracellular dye was removed by washing with assay buffer (2.5 mM probenecid and 0.1% BSA in 20 mM HEPES/HBSS without bicarbonate or phenol red, pH 7.5). Example compounds were assayed at 8 concentrations in triplicate. After addition of example compounds to the cell plate and incubation for 30 min at 28° C., the addition of B1 agonist Lys-(Des-Arg)-Bradykinin (Bachem, Brackley) at a final concentration of EC90 was carried out on the FLIPR instrument while continuously monitoring Ca^2+-dependent fluorescence at 538 nm. A peptide antagonist Lys-(Des-Arg-Leu)-Bradykinin (Bachem, Brackley) at 20 μM was used to determine the full inhibition as control. IC50 values were determined by the same way described for the FLIPR assay with recombinant cells.

stimulated IMR-90 cells = assay: Cell viability, CellTiter-Glo Luminescent Assay; type: cell-based, human
Experimental: IMR-90 cells were cultured in Eagle's Minimum Essential Medium (EMEM) containing 2 mM L-glutamine, 1 g/L glucose, 1.5 g/L NaHCO3, 1 mM sodium pyruvate and non-essential amino acids (ATCC, 30-2003™) supplemented with 10% FBS (Biochrom, 50615) and 50 U/mL Penicillin, 50 μg/mL Streptomycin (PAA, P11-010). The assay was performed in EMEM and a cell density of […] IMR-90 cells/96-well. The compound examples were serially diluted in 100% DMSO and evaluated at 8 different concentrations within the range of 3 nM and 10 μM and a final DMSO concentration of 0.4%. The IMR-90 cells were incubated with the respective concentration of the compound for 30 min. […] The amount of IL-6 and IL-8 in the supernatant was determined using the Human ProInflammatory Panel II (4-Plex) (MSD, K15025B) according to manufacturer's instruction. […] Plates were washed three times with phosphate-buffered saline (PBS; 137 mM NaCl, 2.7 mM KCl, 6.5 mM Na2HP04, 1.7 mM KH2P04) containing 0.05% Tween-20 (Bio-Rad, 161-0781) and electrochemiluminescence detected using the MSD Sector Imager 6000 plate reader. The cell viability was measured using the CellTiter-Glo Luminescent Assay (Promega, G7571) following the manufacturers protocol. […] After incubation and shaking for 10 minutes luminescent signal was measured which was proportional to the amount of ATP present. […]

- IC50 [1]: 66 nM
Compound: O=C(O)c1cc(NC(=O)C2CC2c2ccc(Cl)cc2)cc(F)c1-c1cnn(C2CCC2)c1 (racemic) [Example 2, 5-({[2-(4-chlorophenyl)cyclopropyl]carbonyl}amino)-2-(1-cyclobutyl-1H-pyrazol-4-yl)-3-fluorobenzoic acid]
- effect on the cell viability (stimulated IMR-90 cells): no effect

Source: US20190177279A1, “CARBOXYLIC ACID AROMATIC 1,2-CYCLOPROPYLAMIDES” (Bayer Pharma Aktiengesellschaft, priority 2017, published 2019)
